A value given as a limit tells only on which side of the number the result lay.

The IC50 is the concentration that inhibits the measured activity by half. Usually melting point stands for the temperature, or range, at which the solid turns liquid.

Chain of Human PDE10A1 (Q9Y233 1-779 isoform Q9Y233-1): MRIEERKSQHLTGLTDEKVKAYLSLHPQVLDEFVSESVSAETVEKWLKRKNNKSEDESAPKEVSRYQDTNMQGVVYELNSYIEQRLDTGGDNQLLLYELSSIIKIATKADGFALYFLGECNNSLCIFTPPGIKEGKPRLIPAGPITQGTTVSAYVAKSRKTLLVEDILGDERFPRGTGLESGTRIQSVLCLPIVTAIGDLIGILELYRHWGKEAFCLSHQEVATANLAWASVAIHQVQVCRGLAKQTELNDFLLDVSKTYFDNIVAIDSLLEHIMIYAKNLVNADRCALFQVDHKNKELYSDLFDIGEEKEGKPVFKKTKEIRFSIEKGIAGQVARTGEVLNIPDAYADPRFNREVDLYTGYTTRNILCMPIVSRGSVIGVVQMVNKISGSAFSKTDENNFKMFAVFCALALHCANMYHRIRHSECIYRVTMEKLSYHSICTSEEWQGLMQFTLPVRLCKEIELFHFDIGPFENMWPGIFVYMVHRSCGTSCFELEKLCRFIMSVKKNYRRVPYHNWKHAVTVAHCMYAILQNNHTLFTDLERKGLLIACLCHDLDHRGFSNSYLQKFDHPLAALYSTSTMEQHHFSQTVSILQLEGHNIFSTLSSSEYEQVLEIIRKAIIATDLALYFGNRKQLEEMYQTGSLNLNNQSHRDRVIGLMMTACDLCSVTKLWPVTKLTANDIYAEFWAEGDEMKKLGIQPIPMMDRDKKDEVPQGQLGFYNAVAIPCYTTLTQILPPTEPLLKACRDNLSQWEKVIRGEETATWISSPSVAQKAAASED

For the first data set, the target named is Human PDE10A1 (Homo sapiens, UniProt Q9Y233). The data set is described as follows: hPDE10A1 Enzyme Inhibition. Format: biochemical. Particulars: [3H]-cAMP substrate; read-out: hPDE10A1 IC50 Band. Here is the method:
hPDE10A1 Enzyme Activity: 50 μl samples of serially diluted Human PDE10A1 enzyme were incubated with 50 μl of [^3H]-cAMP for 20 minutes (at 37° C.). Reactions were carried out in Greiner 96 deep well 1 ml master-block. The enzyme was diluted in 20 mM Tris HCl pH7.4 and [^3H]-cAMP was diluted in 10 mM MgCl2, 40 mM Tris.HCl pH 7.4. The reaction was terminated by denaturing the PDE enzyme (at 70° C.) after which [^3H]-5′-AMP was converted to [^3H]-adenosine by adding 25 μl snake venom nucleotidase and incubating for 10 minutes (at 37° C.). Adenosine, being neutral, was separated from charged cAMP or AMP by the addition of 200 μl Dowex resin. Samples were shaken for 20 minutes then centrifuged for 3 minutes at 2,500 r.p.m. 50 μl of supernatant was removed and added to 200 μl of MicroScint-20 in white plates (Greiner 96-well Optiplate) and shaken for 30 minutes before reading on Perkin Elmer TopCount Scintillation Counter.
hPDE10A1 Enzyme Inhibition: To check inhibition profile 11 μl of serially diluted inhibitor was added to 50 μl of [^3H]-cAMP and 50 ul of diluted Human PDE10A1 and assay was carried out as in the enzyme activity assay. Data was analysed using Prism software (GraphPad Inc).
For the compound `N#Cc1ccc(-c2ccc(OCc3ccc4ccccc4n3)cc2)c(-c2ccncc2)c1` [Example 1885, 2-(Pyridin-4-yl)-4′-(quinolin-2-ylmethoxy)biphenyl-4-carbonitrile], the half-maximal inhibitory concentration (IC50) was more than 50 nM. Still for that read-out and setting: then `Cc1ccccc1-c1ccc(OCc2ccc3ccccc3n2)cc1` [Example 444, 2-((2′-methylbiphenyl-4-yloxy)methyl)quinoline], with more than 50 nM. Same read-out and setting: then `CCc1ccccc1-c1ccc(OCc2ccc3ccccc3n2)cc1` [Example 1875, 2-((2′-ethylbiphenyl-4-yloxy)methyl)quinoline], with more than 50 nM; and `Cc1ccc(COc2ccc(-c3ccccc3-c3ccncc3)cc2)nc1` [Example 501, 5-methyl-2-((2′-(pyridin-4-yl)biphenyl-4-yloxy)methyl)pyridine], with not above 50 nM.

With `Clc1cccc(-c2ccncc2)c1-c1ccc(OCc2ccc3ccccc3n2)cc1` [Example 382, 2-((2′-Chloro-6′-(pyridin-4-yl)biphenyl-4-yloxy)methyl)quinoline], the IC50 is not above 50 nM. As for `COc1cc(-c2ccncc2)c(-c2ccc(OCc3ccc4ccccc4n3)cc2)cc1OC` [Example 1862, 2-((4′,5′-dimethoxy-2′-(pyridin-4-yl)biphenyl-4-yloxy)methyl)quinoline], the IC50 is more than 50 nM. Regarding `COc1cc(-c2ccccc2-c2ccc(OCc3ccc4ccccc4n3)cc2)ccc1C#N` [Example 205], the IC50 was not above 50 nM. On the same count and under the same terms, then `c1ccc(-c2ccoc2)c(-c2ccc(OCc3ccc4ccccc4n3)cc2)c1` [Example 1871, 2-((2′-(furan-3-yl)biphenyl-4-yloxy)methyl)quinoline], with more than 50 nM; and `c1ccc(C2CCCCC2)c(-c2ccc(OCc3ccc4ccccc4n3)cc2)c1` [Example 1877, 2-((2′-cyclohexylbiphenyl-4-yloxy)methyl)quinoline], with more than 50 nM; and `N#Cc1ccc(-c2ccncc2)c(-c2ccc(OCc3ccc4ccccc4n3)cc2)c1` [Example 406, 6-(Pyridin-4-yl)-4′-(quinolin-2-ylmethoxy)biphenyl-3-carbonitrile], with not above 50 nM. Same read-out and setting: under `Clc1cccc(-c2ccc(OCc3ccc4ccccc4n3)cc2)c1-c1ccncc1` [Example 1872, 2-((3′-Chloro-2′-(pyridin-4-yl)biphenyl-4-yloxy)methyl)quinoline] stands more than 50 nM; under `c1ccc(-c2ccc(OCc3ccc4ccccc4n3)cc2)c(-c2ccncc2)c1` [Example 380, 2-((2′-(Pyridin-4-yl)biphenyl-4-yloxy)methyl)quinoline], not above 50 nM. Consider `Fc1ccc2nc(COc3ccc(-c4ccccc4-c4ccncc4)cc3)ccc2c1` [Example 560, 6-fluoro-2-((2′-(pyridin-4-yl)biphenyl-4-yloxy)methyl)quinoline], for which the IC50 was not above 50 nM. Regarding `COc1ccc(-c2ccccc2-c2ccc(OCc3ccc4ccccc4n3)cc2)cc1Cl` [Example 1869], the IC50 is more than 50 nM. On to `COc1ccc(-c2ccccc2-c2ccc(OCc3ccc4ccccc4n3)cc2)cc1` [Example 330], for which the IC50 is more than 50 nM. On the same count and under the same terms, then `CC(C)c1ccccc1-c1ccc(OCc2ccc3ccccc3n2)cc1` [Example 443, 2-((2′-isopropylbiphenyl-4-yloxy)methyl)quinoline], with more than 50 nM; and `Fc1cccc(-c2ccc(OCc3ccc4ccccc4n3)cc2)c1-c1ccncc1` [Example 1946, 2-(3′-Fluoro-2′-pyridin-4-ylbiphenyl-4-yloxymethyl)-quinoline], with more than 50 nM; and `c1ccc(N2CCOCC2)c(-c2ccc(OCc3ccc4ccccc4n3)cc2)c1` [Example 445, 4-(4′-(quinolin-2-ylmethoxy)biphenyl-2-yl)morpholine], with more than 50 nM.

System in a further data set: not given
Assay: not given
The note with it: rats; cited from earlier work.
Take `COc1ccc(Cc2nccc3cc(OC)c(OC)cc23)cc1OC` [papaverine]: the apomorphine induced stereotypies entry was “reduces”, the haloperidol induced catalepsy entry is listed as “increases” and the “rat brain dopamine levels” value is given as “reduces”.

System in the next data set: not given
Assay: not given
Conditions: not given
In turn, `N#Cc1ccc(-c2ccc(OCc3ccc4ccccc4n3)cc2)c(-c2ccncc2)c1` [Example 1885, 2-(Pyridin-4-yl)-4′-(quinolin-2-ylmethoxy)biphenyl-4-carbonitrile] showed a melting point of 190 to 193 °C.

The values are drawn from patent US20110224204A1, “DI-SUBSTITUTED PHENYL COMPOUNDS” (priority 2008, published 2011).
